Measured values taken from PMC2362793, “A novel class of lipophilic quinazoline-based folic acid analogues: cytotoxic agents with a folate-independent locus” (British Journal of Cancer, 1999).

Experiments:
[1] = molecular target: T1, thymidylate synthase (TS) (Mus musculus, UniProt P07607); test: inhibition of isolated mouse TS activity at […] (R,S)-5,10-CH2FH4; assay type: biochemical
T1 construct: gene Tyms; enzyme partially purified from the L1210:C15 TS-overproducing cell line

[2] = molecular target: T1, thymidylate synthase (TS); test: inhibition of isolated mouse TS activity and inhibition kinetics (IC50 […], Kies […]); assay type: biochemical

T1 sequence (P07607 whole entry): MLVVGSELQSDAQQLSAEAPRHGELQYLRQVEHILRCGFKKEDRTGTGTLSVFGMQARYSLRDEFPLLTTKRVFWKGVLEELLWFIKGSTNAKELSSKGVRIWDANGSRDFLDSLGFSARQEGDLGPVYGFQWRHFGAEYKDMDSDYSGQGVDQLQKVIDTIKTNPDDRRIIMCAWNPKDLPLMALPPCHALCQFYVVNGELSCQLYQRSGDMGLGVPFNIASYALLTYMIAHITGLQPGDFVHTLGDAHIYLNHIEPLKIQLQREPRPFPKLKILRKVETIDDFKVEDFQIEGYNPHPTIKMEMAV

SMILES	IC50 [1] [µM]	Ki [2] [µM]
C#CCN(Cc1cc2c(=O)[nH]c(C)nc2cc1Br)c1ccc(C(=O)NCc2ccncc2)cc1 [CB300189]	0.25	
C#CCN(Cc1cc2c(=O)[nH]c(C)nc2cc1Br)c1ccc(C(=O)NCc2ccccn2)cc1 [CB300179]		0.16
